Measured values from patent publication US6737406B1, “Cryptic peptides and method for their identification” (Circassia, Ltd., priority 1996, dated 2004).

Assays:
T lymphocytes = assay: Inhibition of T cell proliferation to FC1P peptides, tritiated thymidine incorporation (Example 5); format: cell-based; settings: added at 10^−6M or 10^−9M; freshly isolated T lymphocytes cultured with FC1P
Protocol: Freshly isolated T lymphocytes were cultured in vitro with concentrations of FC1P peptides, previously determined as being optimal for the induction of proliferative and/or other responses in these cells. To certain of the culture wells were added, the glucocorticosteroid Dexamethazone or fluticazone, these were added to cultures at dilutions of 10^−6M or 10^−9M. After culture, cells were labelled with tritiated thymidine to enable quantification of DNA synthesis and thus cellular proliferation.

[1] = system: peripheral blood mononuclear cells; assay: Primary proliferative response of freshly isolated PBMC to FC1P (Example 3); format: cell-based, human; settings: 10^5 cells per well, 6 days, cat allergic asthmatics (CAA) compared with non-cat allergic asthmatics (NCA)
Protocol: Freshly isolated peripheral blood mononuclear cells were cultured at 10^5 cells per well for 6 days prior to labelling with tritiated thymidine for measurement of cellular proliferation.

[2] = system: volunteer cat-allergic asthmatic; assay: Intradermal injection of FC1P into a volunteer cat-allergic asthmatic, lung function (Example 4); format: in vivo, human; settings: 40 μg FC1P intradermally into each forearm
Protocol: 40 μg of highly purified FC1P peptides was injected intradermally into each forearm of a volunteer cat-allergic asthmatic. […] The drop in FEV1 was reversed by the administration of β2 agonist and inhaled corticosteroid at 8 hours. The results of this are shown diagrammatically in FIG. 6.

## C[C@@H]1C[C@H]2[C@@H]3CCC4=CC(=O)C=C[C@]4(C)[C@@]3(F)[C@@H](O)C[C@]2(C)[C@@]1(O)C(=O)CO [dexamethazone]
T lymphocytes
  inhibition of T cell proliferation to FC1P peptides (tritiated thymidine incorporation): inhibition of T cell proliferation

## C[C@@H]1C[C@H]2[C@@H]3C[C@H](F)C4=CC(=O)C=C[C@]4(C)[C@@]3(F)[C@@H](O)C[C@]2(C)[C@@]1(O)C(=O)SCF [fluticazone]
T lymphocytes
  inhibition of T cell proliferation to FC1P peptides (tritiated thymidine incorporation): inhibition of T cell proliferation

## FC1P: three synthetic peptides derived from the sequence of Fel d I, collectively FC1P (SEQ ID NO:23, 5 and 24) (chain 1 LFLTGTPDEYVEQVAQY; chain 2 EQVAQYKALPVVLENA; chain 3 KALPVVLENARILKNCV; listed as Felis domesticus)
[1]
  primary proliferative responses (cellular proliferation, tritiated thymidine): greater primary proliferative responses
[2]; cat-allergic asthmatic
  late-phase asthmatic reaction: induced an isolated late-phase asrimatic reaction
  time of late-phase asthmatic reaction after administration: approximately three
[2]; over the next several hours
  Lung function (quantified as FEV1): fell and remained low
